Here are results for 18 compounds from patent US20250320213A1, “Nitrogen-Containing Heterocyclic Compounds” (Pfizer Inc., priority 2024, published 2025).

SMILES strings stand for the structures.

In test [1] the test system is CCL17 secretion in peripheral human whole blood. Description: Human Whole Blood (HWB) CCL17 TR-FRET Assay (IL-13 stimulated CCL17 secretion). Format: cell-based. As to conditions: inhibition of CCL17 secretion in human whole blood, 10 ng/mL IL13, 48 hours. A digest of the protocol: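 TR-FRET sandwich immunoassay (665/615 nm ratio) read CCL17 in serum from heparinized whole blood after 16 h RT detection. Blood was exposed to compound for 2 h at 37 °C, then to 10 ng/mL IL-13 (final) for 48 h. IC50 from 11-point, 3-fold titrations in duplicate.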
Background: In TR-FRET formats the signal depends on donor and acceptor labels being close together.

For another test, the target named is T1, STAT6 (Homo sapiens, UniProt P42226).
T1 construct: stably transfected HaCaT keratinocyte cell line, which expresses NanoLuc luciferase reporter gene under the transcriptional control of the STAT6 responsive promoter; endogenous in cells; host or cells: HaCaT keratinocyte reporter cell line (stably transfected with a NanoLuc reporter)
T1 sequence (P42226 1-847): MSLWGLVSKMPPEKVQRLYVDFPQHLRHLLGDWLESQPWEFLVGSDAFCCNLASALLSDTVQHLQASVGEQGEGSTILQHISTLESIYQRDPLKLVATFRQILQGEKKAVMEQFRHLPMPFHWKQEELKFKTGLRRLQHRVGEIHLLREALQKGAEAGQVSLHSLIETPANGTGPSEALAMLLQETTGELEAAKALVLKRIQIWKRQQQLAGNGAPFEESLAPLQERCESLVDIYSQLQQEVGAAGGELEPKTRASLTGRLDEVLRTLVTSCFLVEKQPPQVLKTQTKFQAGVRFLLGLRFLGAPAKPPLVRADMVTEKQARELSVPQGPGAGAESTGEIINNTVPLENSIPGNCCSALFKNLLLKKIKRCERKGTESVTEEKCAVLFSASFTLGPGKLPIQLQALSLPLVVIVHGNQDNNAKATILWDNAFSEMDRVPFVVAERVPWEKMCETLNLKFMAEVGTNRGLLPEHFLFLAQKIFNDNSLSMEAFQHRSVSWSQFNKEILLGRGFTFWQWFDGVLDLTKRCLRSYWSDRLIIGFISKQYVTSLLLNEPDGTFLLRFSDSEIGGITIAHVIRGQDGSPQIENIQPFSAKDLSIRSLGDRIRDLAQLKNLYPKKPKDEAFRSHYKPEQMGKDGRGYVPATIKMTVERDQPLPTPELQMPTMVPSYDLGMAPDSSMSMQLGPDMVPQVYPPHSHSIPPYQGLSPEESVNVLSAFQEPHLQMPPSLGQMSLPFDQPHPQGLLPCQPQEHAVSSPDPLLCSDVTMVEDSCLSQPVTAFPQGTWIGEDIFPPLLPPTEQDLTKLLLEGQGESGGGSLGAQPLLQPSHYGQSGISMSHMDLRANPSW
Description: STAT6 Reporter Luciferase Assay (IL-13 stimulated HaCaT keratinocyte NanoLuc reporter cells). Format: cell-based. As to conditions: STAT6 NanoLuc luciferase reporter, IL-13 stimulated HaCaT keratinocyte cells; read-out: Reporter EC50. In a few lines:
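Stably transfected HaCaT cells carrying NanoLuc under the STAT6-responsive IL-13Ra2 promoter were pre-treated with compound (11-point, 4-fold series, duplicate) for 2 h at 37 °C, then stimulated with 0.12 nM IL-13 for 4 h. Nano-Glo luminescence was read after 15 min.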

What is called IC50 is the point on the concentration scale where inhibition reaches its midpoint. A word on the EC50: it is the concentration giving half of the maximal effect. In test [1] (Homo sapiens, 48 h), `CC(C)n1nc(C(=O)NCc2ccc(NC(=O)N(C)C)cc2)c2c1CCN(c1ccc(N3C(=O)OCC3CO)cn1)C2` (stereo not drawn) [Example 110, N-(4-(3,3-dimethylureido)benzyl)-5-(5-(4-(hydroxymethyl)-2-oxooxazolidin-3-yl)pyridin-2-yl)-1-isopropyl-4,5,6,7-tetrahydro-1H-pyrazolo[4,3-c]pyridine-3-carboxamide] yielded a half-maximal inhibitory concentration (IC50) of 2090 nM. In addition, the EC50 at STAT6 amounted to 523 nM.
On the same counts, the results for `CC(C)n1nc(C(=O)NCc2ccc(NC(=O)N(C)C)cc2)c2c1C[C@@H](C)N(c1ccc(C(=O)N(C)C)cn1)C2` [Example 114, (R)-5-(5-(dimethylcarbamoyl)pyridin-2-yl)-N-(4-(3,3-dimethylureido)benzyl)-1-isopropyl-6-methyl-4,5,6,7-tetrahydro-1H-pyrazolo[4,3-c]pyridine-3-carboxamide] are 211 nM and 20 nM.
The corresponding values for `C[C@H]1CN(c2ncc(C(=O)N(C)C)cn2)Cc2c(C(=O)NCc3ccc(NC(=O)N(C)C)cc3)nn(CC3CC3)c21` [Example 120, (S)-1-(cyclopropylmethyl)-5-(5-(dimethylcarbamoyl)pyrimidin-2-yl)-N-(4-(3,3-dimethylureido)benzyl)-7-methyl-4,5,6,7-tetrahydro-1H-pyrazolo[4,3-c]pyridine-3-carboxamide] are 4 nM and 1 nM.
As to `CCn1nc(C(=O)NCc2ccc(NC(=O)N(C)C)cc2)c2c1[C@@H](C)CN(c1ncc(C(=O)N(C)C)cn1)C2` [Example 125, (S)-5-(5-(Dimethylcarbamoyl)pyrimidin-2-yl)-N-(4-(3,3-dimethylureido)benzyl)-1-ethyl-7-methyl-4,5,6,7-tetrahydro-1H-pyrazolo[4,3-c]pyridine-3-carboxamide], the midpoint of inhibition in test [1] (Homo sapiens, 48 h), the IC50, lay at 4 nM. Besides, the concentration for a half-maximal effect (EC50) on STAT6 is 1 nM.
On the same counts, the results for `CCn1nc(C(=O)NCc2ccc(NC(=O)N(C)C)cc2)c2c1[C@@H](C)CN(c1ccc(C(=O)N(C)C)cn1)C2` [Example 126, (S)-5-(5-(Dimethylcarbamoyl)pyridin-2-yl)-N-(4-(3,3-dimethylureido)benzyl)-1-ethyl-7-methyl-4,5,6,7-tetrahydro-1H-pyrazolo[4,3-c]pyridine-3-carboxamide] are 5 nM and 1 nM.
`CC(C)n1nc(C(=O)NCc2ccc(NC(=O)N(C)C)cc2)c2c1[C@@H](C)CN(c1ncc(C(=O)N(C)C)cn1)C2` [Example 127] came in with an IC50 in test [1] (Homo sapiens, 48 h) of 4 nM. Besides, the EC50 on STAT6 worked out at 1 nM.
`CCn1nc(C(=O)NCc2ccc(NC(=O)N(C)C)cc2)c2c1[C@@H](C)CN(c1ccc(N3CCCC3=O)cn1)C2` [Example 129, (S)-N-(4-(3,3-dimethylureido)benzyl)-1-ethyl-7-methyl-5-(5-(2-oxopyrrolidin-1-yl)pyridin-2-yl)-4,5,6,7-tetrahydro-1H-pyrazolo[4,3-c]pyridine-3-carboxamide]: half-maximal inhibition in test [1] (Homo sapiens, 48 h) (IC50) required 9 nM. Further, at STAT6, the concentration for a half-maximal effect (EC50) is 1 nM.
The corresponding values for `CC(C)n1nc(C(=O)NCc2ccc(NC(=O)N3CCN(C)CC3)cc2)c2c1[C@@H](C)CN(c1ccc(C(=O)N(C)C)cc1)C2` [Example 132, (S)-5-(4-(Dimethylcarbamoyl)phenyl)-1-isopropyl-7-methyl-N-(4-(4-methylpiperazine-1-carboxamido)benzyl)-4,5,6,7-tetrahydro-1H-pyrazolo[4,3-c]pyridine-3-carboxamide] are 3.6 nM and 0.2 nM.
On the same counts, the results for `CC(C)n1nc(C(=O)NCc2ccc(NC(N)=O)cc2)c2c1CCN(c1ccc(C(=O)N(C)C)cn1)C2` [Example 133, 5-(5-(dimethylcarbamoyl)pyridin-2-yl)-1-isopropyl-N-(4-ureidobenzyl)-4,5,6,7-tetrahydro-1H-pyrazolo[4,3-c]pyridine-3-carboxamide] are 48 nM and 28 nM.
The corresponding values for `CNC(=O)Nc1ccc(CNC(=O)c2nn(C(C)C)c3c2CN(c2ccc(C(=O)N(C)C)cn2)CC3)cc1` [Example 134, 5-(5-(dimethylcarbamoyl)pyridin-2-yl)-1-isopropyl-N-(4-(3-methylureido)benzyl)-4,5,6,7-tetrahydro-1H-pyrazolo[4,3-c]pyridine-3-carboxamide] are 46 nM and 7 nM.
Turning to `CNC(=O)c1ccc(N2CCc3c(c(C(=O)NCc4ccc(NC(=O)N(C)C)cc4)nn3C(C)C)C2)nc1` [Example 135, N-(4-(3,3-dimethylureido)benzyl)-1-isopropyl-5-(5-(methylcarbamoyl)pyridin-2-yl)-4,5,6,7-tetrahydro-1H-pyrazolo[4,3-c]pyridine-3-carboxamide], the IC50 in test [1] (Homo sapiens, 48 h) was found to be 1270 nM. Moreover, on STAT6, the EC50 came to 136 nM.
`CC(C)n1nc(C(=O)NCc2ccc(NC(=O)N3CCCC3)cc2)c2c1CCN(c1ccc(C(=O)N(C)C)cn1)C2` [Example 136, 5-(5-(Dimethylcarbamoyl)pyridin-2-yl)-1-isopropyl-N-(4-(pyrrolidine-1-carboxamido)benzyl)-4,5,6,7-tetrahydro-1H-pyrazolo[4,3-c]pyridine-3-carboxamide] displayed a 50% inhibitory concentration (IC50) in test [1] of 196 nM. Further, the EC50 at STAT6 turned out to be 12 nM.
`CC(C)n1nc(C(=O)NCc2ccc(NC(=O)N(C)C)cc2)c2c1CCN(c1ccc(C(N)=O)cn1)C2` [Example 137, 5-(5-carbamoylpyridin-2-yl)-N-(4-(3,3-dimethylureido)benzyl)-1-isopropyl-4,5,6,7-tetrahydro-1H-pyrazolo[4,3-c]pyridine-3-carboxamide] showed an IC50 in test [1] (Homo sapiens, 48 h) of 9690 nM. In addition, on STAT6, the EC50 stood at 1860 nM.
Compound `CC(C)n1nc(C(=O)NCc2ccc(NC(=O)N(C)C)cc2)c2c1CCN(c1ccc(NS(C)(=O)=O)cn1)C2` [Example 138, N-(4-(3,3-dimethylureido)benzyl)-1-isopropyl-5-(5-(methylsulfonamido)pyridin-2-yl)-4,5,6,7-tetrahydro-1H-pyrazolo[4,3-c]pyridine-3-carboxamide] gave a 50% inhibitory concentration (IC50) in test [1] (Homo sapiens, 48 h) of 1140 nM. Besides, the EC50 at STAT6 was found to be 248 nM.
The corresponding values for `CC(C)n1nc(C(=O)NCc2ccc(NC(=O)N(C)C)cc2)c2c1C[C@H](C)N(c1ccc(C(=O)N(C)C)cn1)C2` [Example 139, (S)-5-(5-(dimethylcarbamoyl)pyridin-2-yl)-N-(4-(3,3-dimethylureido)benzyl)-1-isopropyl-6-methyl-4,5,6,7-tetrahydro-1H-pyrazolo[4,3-c]pyridine-3-carboxamide] are 7 nM and 2 nM.
The corresponding values for `CC(C)n1nc(C(=O)NCc2ccc(NC(=O)N3C[C@@H](F)[C@@H](F)C3)cc2)c2c1CCN(c1ccc(C(=O)N(C)C)cn1)C2` [Example 140, N-(4-((3R,4S)-3,4-difluoropyrrolidine-1-carboxamido)benzyl)-5-(5-(dimethylcarbamoyl)pyridin-2-yl)-1-isopropyl-4,5,6,7-tetrahydro-1H-pyrazolo[4,3-c]pyridine-3-carboxamide] are 144 nM and 12 nM.
On the same counts, the results for `CC(C)n1nc(C(=O)NCc2ccc(NC(=O)N3CC(N(C)C)C3)cc2)c2c1CCN(c1ccc(C(=O)N(C)C)cn1)C2` [Example 141, N-(4-(3-(dimethylamino)azetidine-1-carboxamido)benzyl)-5-(5-(dimethylcarbamoyl)pyridin-2-yl)-1-isopropyl-4,5,6,7-tetrahydro-1H-pyrazolo[4,3-c]pyridine-3-carboxamide] are 78 nM and 22 nM.
In test [1] (Homo sapiens, 48 h), `CC(C)n1nc(C(=O)NCc2ccc(NC(=O)N3C[C@@H]4CC[C@H]3CO4)cc2)c2c1CCN(c1ccc(C(=O)N(C)C)cn1)C2` [Example 142, (1S,4S)-N-(4-((5-(5-(dimethylcarbamoyl)pyridin-2-yl)-1-isopropyl-4,5,6,7-tetrahydro-1H-pyrazolo[4,3-c]pyridine-3-carboxamido)methyl)phenyl)-2-oxa-5-azabicyclo[2.2.2]octane-5-carboxamide] came in with a half-maximal inhibitory concentration (IC50) of 39 nM. The EC50 on STAT6 is 15 nM.
